# In patent publication EP0265400A2, “Topical radioprotective gel for mucosa” (priority 1986, dated 1988):
# Values joined by “and” are separate entries in the source; they are usually repeats but may differ in a detail not shown here. Equal values may be shown once. “Also recorded” adds a separate entry of the source. Positions of bridges follow the written chain, without caps; N, C: chain ends. Residues, ends and D or L forms follow the SMILES beside them.
# What was measured:
# [1] = system: Irradiation-induced lesions in the mucosa; assay: Radioprotective effect of rectally applied gel on irradiated rectal mucosa: histological grading and body weight; assay type: in vivo, Wistar rats; settings: for Body weight change / Change of glandular structure / Fibrosis / Ulceration - abscessa development in crypts / Sum of parameters: one value per rat; for Sum of parameters: histological grading
# Description: For studies of the radioprotective effect of TGLVP Wistar rats (body weight 187-394 g) were used and treated in pairs at the same time. In each pair, one rat was treated rectally with TGLVP, while the other rat, the control rat, was given CMC solution rectally. The gels were applied in the same manner as described above. For anaesthesia, nembutal was given intraperitoneally. The rats were irradiated with 240 kV X-rays (0.2 Cu filtration), using AP and PA fields in size 4 × 3 cm. This gave a uniform dose in the lower part of the abdomen corresponding to the position of the rectum. 10 Gy were given on day 1, and 10 Gy on day 4. The rats were killed 14 days after the treatment, and the rectum was removed for histological analysis. The rats were weighed before treatment and when they were killed. 10 rats were treated with 1600 µg TGLVP 15 min before irradiation (Tables IV and V) 5 rats were treated with 800 µg TGLVP 15 min before irradiation (Table V) 10 rats were given 1600 µg TGLVP 30 min before treatment (Table III) 5 rats were given 3200 µg TGLVP 15 min before treatment (Table I) 5 rats were given 3200 µg TGLVP 30 min before treatment (Table II)
# Histological grading (sum of parameters) was performed in accordance with an evaluation system in which 0 is the normal structure and 6 indicates maximum change. Irradiation-induced lesions in the mucosa were determined arbitrarily by means of the following parameters: • 1: The extent of fibrosis in the mucosa and submucosa. • 2: The change of glandular structure in the mucosa. • 3: Ulcerations in the mucosa or abscesses in mucosal crypts.
# [2] = Studies of systemic circulation (dose titration) after rectal application of the gel: arterial pressure and pulse rate; assay type: in vivo, Wistar rats
# Description: The concentration of vasoconstrictive substance in the radioprotective gels according to the invention was determined according to the desire to provide a local vasoconstrictive effect (with subsequent hypoxia) in the mucosa, but without general secondary effect, such as blood pressure increase and bradycardia. To achieve this, dose titration studies of the different vasoconstrictive substances were carried out, i.e. the dose just below the threshold of general circulatory response was defined. Due to interaction (electrostatic binding) between the active substance and the different thickening agents, the dose for a specific vasoconstrictive substance varied depending upon the thickening agent employed.
# For studies of systematic circulation, Wistar rats (body weight 177-296 g) were used. TGLVP was administered rectally by means of a Nelaton-Foley catheter inserted through the anus until the balloon was 5 cm away from the anus. The balloon was then filled to ensure that the catheter stayed in position and to prevent TGLVP from reaching the upper parts of the bowel. TGLVP was dissolved in a 1% by weight aqueous solution of sodium carboxymethyl cellulose (CMC) and was in contact with all parts of the mucosa during the test. The volume applied amounted to half a milliliter. Three dose levels of TGLVP were tested, i.e. 800 µg, 1600 µg and 3200 µg. For each dose level, use was made of five rats and a corresponding number of controls which were given CMC solution only. For anaesthesia, nembutal was used intraperitoneally. Mean values for arterial pressure and puls rate were recorded by means of a catheter in the aorta via the femoral artery.
# Dose titration was carried out in a similar manner on AVP, LVP, TGLVP with other thickening agents, Angiotensin II and norepinephrine.
# [3] = TGLVP 3200 µg/g in 1 weight% carboxymethyl cellulose, dose 1600 µg, 30 min before irradiation
# [4] = TGLVP 3200 µg/g in 1 weight% carboxymethyl cellulose, dose 1600 µg, 30 min before irradiation, grade 0-6
# [5] = TGLVP 6400 µg/g in 1 weight% carboxymethyl cellulose, dose 3200 µg, 15 min before irradiation, grade 0-6
# [6] = TGLVP 6400 µg/g in 1 weight% carboxymethyl cellulose, dose 3200 µg, 30 min before irradiation
# [7] = TGLVP 6400 µg/g in 1 weight% carboxymethyl cellulose, dose 3200 µg, 30 min before irradiation, grade 0-6
compound,measurement,setting,value
"NCCCC[C@H](NC(=O)[C@@H]1CCCN1C(=O)[C@@H]1CSSC[C@H](NC(=O)CNC(=O)CNC(=O)CN)C(=O)N[C@@H](Cc2ccc(O)cc2)C(=O)N[C@@H](Cc2ccccc2)C(=O)N[C@@H](CCC(N)=O)C(=O)N[C@@H](CC(N)=O)C(=O)N1)C(=O)NCC(N)=O [TGLVP, triglycyl-lysine-vasopressin] (H-GGGCYFQNCPKG-NH2; disulfide 4-9)",function of the gel in radioprotective experiments,[1]; 1600-6400 µg per g of 1% by weight carboxymethyl cellulose in sterile deionised water,found to function as intended
same,Body weight change,[1]; [3],14 g and 3 g and 18 g and 7 g and 5 g
same,Change of glandular structure,[1]; [4],2 (4×) and 4
same,Fibrosis,[1]; [4],4 (4×) and 2
same,Ulceration - abscessa development in crypts,[1]; [4],0 (3×) and 2 (2×)
same,Sum of parameters,[1]; [3],6 (4×) and 10
same,Fibrosis,"[1]; TGLVP 6400 µg/g in 1 weight% carboxymethyl cellulose, dose 3200 µg rectally 15 min before irradiation (10 Gy day 1 and day 4), grade 0 normal, 6 maximum change, killed 14 days after treatment",4 and 2 (4×)
same,Body weight change,"[1]; TGLVP 6400 µg/g in 1 weight% carboxymethyl cellulose, dose 3200 µg, 15 min before irradiation, before treatment vs when killed",9 g and 4 g and 7 g and 15 g and 12 g
same,Change of glandular structure,[1]; [5],4 and 2 (2×) and 0 (2×)
same,Ulceration - abscessa development in crypts,[1]; [5],4 and 2 and 0 (3×)
same,Sum of parameters,"[1]; TGLVP 6400 µg/g in 1 weight% carboxymethyl cellulose, dose 3200 µg, 15 min before irradiation",12 and 6 and 2 (2×) and 4
same,Body weight change,[1]; [6],24 g and 7 g and 13 g and -2 g and 38 g
same,Change of glandular structure,[1]; [7],0 (2×) and 4 and 2 (2×)
same,Fibrosis,[1]; [7],4
same,Ulceration - abscessa development in crypts,[1]; [7],0 (2×) and 4 and 2 (2×)
same,Sum of parameters,[1]; [6],4 and 12 and 6 (2×) and 8
same,radioprotective effect,"[1]; dose of 1600 µg, rats",maximum radioprotective effect
same,radioprotection to the mucosa as compared with the controls,"[1]; dose of 3200, 1600 or 800 µg, irradiation 15 or 30 min after administration, summary of Tables I-V",gave radioprotection to the mucosa
same,radioprotection: effect of higher dose or longer time,"[1]; increase of dose from 1600 µg to 3200 µg, or of time from 15 to 30 min, compared with 1600 µg at 15 min, Tables I-IV",does not seem to give a better result
same,"protection, from body weight values","[1]; increasing the dose from 800 µg to 1600 µg, 15 min before irradiation, Table V",improved protection
same,circulatory changes,[2]; 128 µg in 0.9% by weight hydroxypropyl cellulose solution,without changes
same,circulatory changes,[2]; 128 µg in 1.2% by weight hydroxyethyl cellulose solution,no circulatory changes
same,circulatory changes,[2]; 256 µg in 0.9% by weight hydroxypropyl cellulose solution,without changes
same,blood pressure,"[2]; 256 µg in 1.2% by weight hydroxyethyl cellulose solution, at 75 and 90 minutes after application",gave a rise in blood pressure
same,pulse rate,"[2]; 256 µg in 1.2% by weight hydroxyethyl cellulose solution, at 5 minutes after application",decrease in pulse rate
same,circulatory changes (pulse),"[2]; 512 µg in 0.9% by weight hydroxypropyl cellulose solution, 15-120 minutes after application",gave a bradycardia
same,pulse rate,"[2]; 512 µg in 1.2% by weight hydroxyethyl cellulose solution, 10-45 minutes after application",bradycardia
same,blood pressure,"[2]; 512 µg in 1.2% by weight hydroxyethyl cellulose solution, 30 and 45 minutes after application",gave a rise in blood pressure
same,systemic circulatory response in the form of blood pressure increase or lower pulse,[2]; 800 µg rectally in 1% by weight sodium carboxymethyl cellulose (CMC),no systemic circulatory response
same,systemic circulatory response in the form of blood pressure increase or lower pulse,[2]; 1600 µg rectally in 1% by weight sodium carboxymethyl cellulose (CMC),no systemic circulatory response; also recorded: without general circulatory responses
same,systemic circulatory response in the form of blood pressure increase or lower pulse,[2]; 3200 µg rectally in 1% by weight sodium carboxymethyl cellulose (CMC),caused blood pressure increase in several animals
NC[C@H](O)c1ccc(O)c(O)c1 [norepinephrine],function of the gel in radioprotective experiments,[1]; 2 mg per g of 0.6% by weight hydroxyethyl cellulose in sterile deionised water,found to function as intended
same,"cases with radioprotection to the mucosa, as compared with the controls","[1]; dose of 1 mg, irradiation 15 min after administration, Table IX",5 out of 6
Angiotensin II,function of the gel in radioprotective experiments,[1]; 250 µg per g of 0.6% by weight hydroxyethyl cellulose in sterile deionised water,found to function as intended
same,"cases with radioprotection to the mucosa, as compared with the controls","[1]; dose of 125 µg, irradiation 15 min after administration, Table VIII",5 out of 6
"Angiotensin II (DRVYIHPF; Angiotensin-2; UniProt P01019 25-32, looked up)",changes in blood pressure or pulse rate,"[2]; doses of 0.1 µg to 500 µg in 0.6% by weight hydroxyethyl cellulose solution, even at the highest dose level, 75 or 140 minutes of follow-up",no significant changes in blood pressure or pulse rate
arginine-vasopressin [AVP],function of the gel in radioprotective experiments,[1]; 10 µg per g of 0.2% by weight carboxypolymethylene in sterile deionised water,found to function as intended
same,radioprotection to the mucosa as compared with the controls,"[1]; dose of 10 µg, irradiation 10 min after administration, Table VI, histological grading only",gave radioprotection to the mucosa
same,influence on blood pressure,"[2]; 25 µg in 0.2% by weight carboxypolymethylene solution, pulse rate not measured",without any significant influence on blood pressure
same,influence on blood pressure,"[2]; 50 µg in 0.2% by weight carboxypolymethylene solution, pulse rate not measured",without any significant influence on blood pressure
lysine-vasopressin [LVP],function of the gel in radioprotective experiments,[1]; 32 µg per g of 1.2% by weight hydroxyethyl cellulose in sterile deionised water,found to function as intended
same,radioprotection to the mucosa,"[1]; dose of 16 µg, irradiation 15 min after administration, Table VII",gave radioprotection to the mucosa
same,changes in systemic circulation,[2]; 4 µg in 1.2% by weight hydroxyethyl cellulose solution,without significant changes in systemic circulation
same,changes in systemic circulation,[2]; 8 µg in 1.2% by weight hydroxyethyl cellulose solution,without significant changes in systemic circulation
same,change in blood pressure,"[2]; 10 µg in 0.2% by weight carboxypolymethylene solution, pulse rate not measured",without any significant change in blood pressure
same,change in blood pressure,"[2]; 10 µg in 1% by weight sodiumcarboxymethyl cellulose (CMC) solution, pulse rate not measured",without any change in blood pressure
same,changes in systemic circulation,[2]; 16 µg in 1.2% by weight hydroxyethyl cellulose solution,without significant changes in systemic circulation; also recorded: caused no significant change in systemic circulation
same,change in blood pressure,"[2]; 20 µg in 0.2% by weight carboxypolymethylene solution, pulse rate not measured",without any significant change in blood pressure
same,change in blood pressure,"[2]; 20 µg in 1% by weight sodiumcarboxymethyl cellulose (CMC) solution, pulse rate not measured",without any change in blood pressure
same,pulse rate,[2]; 32 µg in 1.2% by weight hydroxyethyl cellulose solution,No decrease in pulse rate was noted
same,blood pressure,"[2]; 32 µg in 1.2% by weight hydroxyethyl cellulose solution, 5, 10, 15, 20, 25, 30, 45, 75 and 90 minutes after application",caused a rise in blood pressure
same,change in blood pressure,"[2]; 40 µg in 0.2% by weight carboxypolymethylene solution, significant at 10, 15, 20, 25, 45 and 60 minutes after application",gave a rise in blood pressure
same,change in blood pressure,"[2]; 40 µg in 1% by weight sodiumcarboxymethyl cellulose (CMC) solution, pulse rate not measured",without any change in blood pressure
same,change in blood pressure,"[2]; 80 µg in 0.2% by weight carboxypolymethylene solution, significant 5-60 minutes after application",gave a rise in blood pressure
same,change in blood pressure,"[2]; 80 µg in 1% by weight sodiumcarboxymethyl cellulose (CMC) solution, 5-45 minutes after application",caused a rise in blood pressure
